Our source for the inhibition values is patent US10196381B2, “Benzimidazole-2-piperazine heterocyclic compound, pharmaceutical composition containing the same, preparation method and use thereof” (Shanghai Huilun Life Science & Technology Co., Ltd., priority 2013, dated 2019).

This assay has as its target PARP-1 enzyme (Homo sapiens (Human), UniProt P09874). Put plainly: PARP enzyme activity assay (HT Universal Chemiluminescent PARP Assay Kit, histone-coated wells). It is filed as biochemical. As to conditions: for inhibition at 0.03 µM: read-out: Inhibition (%) at 30 nM; for inhibition at 0.1 µM: read-out: Inhibition (%) at 100 nM. As for the experimental part: PARP is an enzyme responsible for post-translational modification, which may be activated by means of DNA damage. The process catalyzed by PARP in vivo is mainly NAD-dependent poly(ADP-ribosyl)ation, in which the substrates are mainly some nuclear proteins including PARP, one example of which is histone. In the present invention, the PARP activity is assayed by determining the poly(ADP-ribosyl)ation degree of histone coated in a 96-well plate in the presence of NAD, and the PARP activity under the action of a PARP inhibitor is correspondingly assayed, thereby evaluating the degree of inhibition of the compounds on PARP activity. Poly(ADP-ribosyl)ation of nuclear proteins is a post-translational modification occurred in response to DNA damage. PARP is the abbreviation of poly(ADP-ribose)polymerase, which catalyzes the attachment of poly(ADP-ribose) to an adjacent nuclear protein in the presence of NAD, thus eliciting a mechanism of DNA repair through base excision repair pathway. The level of biotin-labeled ADP-ribose binding to histone can be detected by using the HT Universal Chemiluminescent PARP Assay Kit commercially available from Trevigen Corp. […] HT Universal Chemiluminescent PARP Assay Kit with Histone-coated Strip Wells, commercially available from Trevigen (US), Catalog #: 4676-096-K. […] 4. The PARP enzyme was carefully diluted with the 1×PARP buffer just before use, the diluted enzyme solution should be used as quickly as possible and the remaining solution should be discarded. […] 2. […] 1. […] 2. […] 4. […] After washing, equal volume of the PeroxyGlow A and B solutions were uniformly mixed, 100 μl of the solution was added to each well, and the chemiluminescent signals were recorded on a plate reader immediately. The readout of each well is converted into the percent inhibition. […] Note: the readout of the positive control well is designated as 100% enzyme activity; the readout of the negative control well is designated as 0% enzyme activity; and the activity X refers to the readout from respective concentration of each sample.

Chain of PARP-1 enzyme (P09874 whole entry): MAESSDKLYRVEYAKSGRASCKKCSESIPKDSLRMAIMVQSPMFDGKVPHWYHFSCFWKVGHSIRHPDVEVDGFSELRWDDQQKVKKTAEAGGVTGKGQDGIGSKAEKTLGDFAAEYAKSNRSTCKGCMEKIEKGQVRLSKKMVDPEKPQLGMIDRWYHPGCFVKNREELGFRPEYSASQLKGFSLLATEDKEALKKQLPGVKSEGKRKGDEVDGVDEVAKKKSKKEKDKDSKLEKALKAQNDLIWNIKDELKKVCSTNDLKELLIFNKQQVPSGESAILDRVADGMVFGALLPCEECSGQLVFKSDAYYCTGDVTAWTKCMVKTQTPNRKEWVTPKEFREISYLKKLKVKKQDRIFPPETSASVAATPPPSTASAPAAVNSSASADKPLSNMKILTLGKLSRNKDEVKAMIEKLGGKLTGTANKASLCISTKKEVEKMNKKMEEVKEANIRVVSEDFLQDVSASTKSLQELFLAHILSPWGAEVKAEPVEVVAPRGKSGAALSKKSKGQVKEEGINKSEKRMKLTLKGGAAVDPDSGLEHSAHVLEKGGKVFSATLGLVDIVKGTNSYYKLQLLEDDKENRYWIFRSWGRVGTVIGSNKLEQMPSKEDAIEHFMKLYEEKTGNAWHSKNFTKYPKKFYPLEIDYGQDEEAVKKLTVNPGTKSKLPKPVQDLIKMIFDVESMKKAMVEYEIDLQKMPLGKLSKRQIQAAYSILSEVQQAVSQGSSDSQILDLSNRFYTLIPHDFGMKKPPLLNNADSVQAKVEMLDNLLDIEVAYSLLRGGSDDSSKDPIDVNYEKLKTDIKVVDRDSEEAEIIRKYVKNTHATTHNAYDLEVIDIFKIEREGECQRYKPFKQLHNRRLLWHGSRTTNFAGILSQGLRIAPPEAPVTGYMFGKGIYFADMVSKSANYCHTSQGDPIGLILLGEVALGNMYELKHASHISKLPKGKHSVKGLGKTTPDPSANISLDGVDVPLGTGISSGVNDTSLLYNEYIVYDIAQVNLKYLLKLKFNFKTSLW

As to `NC(=O)c1cccc2[nH]c(N3CCN(c4ncccn4)CC3)nc12` [Compound (1), 2-(4-(pyrimidin-2-yl)piperazin-1-yl)-1H-benzimidazole-4-carboxamide], the inhibition (as a rule, how much of the control response was suppressed) at 0.03 µM was found to be 59% and the inhibition at 0.1 µM amounted to 76%.
For `CN(C)C(=O)c1ccc(N2CCN(c3nc4c(C(N)=O)cccc4[nH]3)CC2)nc1` [Compound (15), 2-(4-(5-dimethylcarbamoylpyridin-2-yl)piperazin-1-yl)-1H-benzimidazole-4-carboxamide], the inhibition at 0.03 µM stood at 44% and the inhibition at 0.1 µM is 70%.
With `NC(=O)c1cc(F)cc2[nH]c(N3CCN(c4cnc(C(F)(F)F)nc4)CC3)nc12` [Compound (33), 6-fluoro-2-(4-(2-trifluoromethylpyrimidin-5-yl)piperazin-1-yl)-1H-benzimidazole-4-carboxamide], the inhibition at 0.03 µM stood at 88% and the inhibition at 0.1 µM stood at 98%.
As for `CCNC(=O)c1ncc(N2CCN(c3nc4c(C(N)=O)cc(F)cc4[nH]3)CC2)cn1` [Compound (40), 2-(4-(2-ethylcarbamoylpyrimidin-5-yl)piperazin-1-yl)-6-fluoro-1H-benzimidazole-4-carboxamide], the inhibition at 0.03 µM came to 77% and the inhibition at 0.1 µM is 93%.
Consider `NC(=O)c1cc(F)cc2[nH]c(N3CCN(c4cnc(C(=O)N5CCCC5)cn4)CC3)nc12` [Compound (29), 6-fluoro-2-(4-(5-(pyrrolin-1-acyl)pyrazin-2-yl)piperazin-1-yl)-1H-benzimidazole-4-carboxamide], for which the inhibition at 0.03 µM came out at 71% and the inhibition at 0.1 µM came out at 88%.
Turning to `NC(=O)c1cc(F)cc2[nH]c(N3CCN(c4cnc(C(F)(F)F)cn4)CC3)nc12` [Compound (35), 6-fluoro-2-(4-(5-trifluoromethylpyrazin-2-yl)piperazin-1-yl)-1H-benzimidazole-4-carboxamide], the inhibition at 0.03 µM was determined as 76% and the inhibition at 0.1 µM was determined as 91%.
On to `NC(=O)c1cccc2[nH]c(N3CCN(c4ccncn4)CC3)nc12` [Compound (7), 2-(4-(pyrimidin-4-yl)piperazin-1-yl)-1H-benzimidazole-4-carboxamide], for which the inhibition at 0.03 µM is 73% and the inhibition at 0.1 µM was 85%.
For `CN(C)C(=O)c1cnc(N2CCN(c3nc4c(C(N)=O)cc(F)cc4[nH]3)CC2)cn1` [Compound (36), 2-(4-(5-dimethylcarbamoylpyrazin-2-yl)piperazin-1-yl)-6-fluoro-1H-benzimidazole-4-carboxamide], the inhibition at 0.03 µM turned out to be 83% and the inhibition at 0.1 µM turned out to be 92%.
The corresponding values for `CCNc1cccnc1N1CCN(c2nc3c(C(N)=O)cccc3[nH]2)CC1` [Compound (8), 2-(4-(3-ethylaminopyridin-2-yl)piperazin-1-yl)-1H-benzimidazole-4-carboxamide] are 8% and 16%.
The corresponding values for `CCNC(=O)c1cnc(N2CCN(c3nc4c(C(N)=O)cc(F)cc4[nH]3)CC2)cn1` [Compound (26), 2-(4-(5-ethylcarbamoylpyrazin-2-yl)piperazin-1-yl)-6-fluoro-1H-benzimidazole-4-carboxamide] are 80% and 94%.
As for `N#Cc1cnc(N2CCN(c3nc4c(C(N)=O)cc(F)cc4[nH]3)CC2)nc1` [Compound (19), 2-(4-(5-cyanopyrimidin-2-yl)piperazin-1-yl)-6-fluoro-1H-benzimidazole-4-carboxamide], the inhibition at 0.03 µM is 77% and the inhibition at 0.1 µM worked out at 93%.
`N#Cc1cnc(N2CCN(c3nc4c(C(N)=O)cccc4[nH]3)CC2)nc1` [Compound (14), 2-(4-(5-cyanopyrimidin-2-yl)piperazin-1-yl)-1H-benzimidazole-4-carboxamide]: the inhibition at 0.03 µM was 57% and the inhibition at 0.1 µM is 78%.
`NC(=O)c1cc(F)cc2[nH]c(N3CCN(c4ccc(C(F)(F)F)cn4)CC3)nc12` [Compound (21), 6-fluoro-2-(4-(5-trifluoromethylpyridin-2-yl)piperazin-1-yl)-1H-benzimidazole-4-carboxamide]: the inhibition at 0.03 µM came to 32% and the inhibition at 0.1 µM was found to be 60%.
`CC(C)NC(=O)c1cnc(N2CCN(c3nc4c(C(N)=O)cc(F)cc4[nH]3)CC2)cn1` [Compound (27), 6-fluoro-2-(4-(5-isopropylcarbamoylpyrazin-2-yl)piperazin-1-yl)-1H-benzimidazole-4-carboxamide]: the inhibition at 0.03 µM amounted to 66% and the inhibition at 0.1 µM came to 86%.
For `NC(=O)c1cc(F)cc2[nH]c(N3CCN(c4ncc(C(F)(F)F)cn4)CC3)nc12` [Compound (34), 6-fluoro-2-(4-(5-trifluoromethylpyrimidin-2-yl)piperazin-1-yl)-1H-benzimidazole-4-carboxamide], the inhibition at 0.03 µM turned out to be 36% and the inhibition at 0.1 µM is 60%.
As for `CC(C)(C)NC(=O)c1cnc(N2CCN(c3nc4c(C(N)=O)cc(F)cc4[nH]3)CC2)cn1` [Compound (28), 2-(4-(5-t-butylcarbamoylpyrazin-2-yl)piperazin-1-yl)-6-fluoro-1H-benzimidazole-4-carboxamide], the inhibition at 0.03 µM was found to be 53% and the inhibition at 0.1 µM was determined as 78%.
In the same order, the values of `NC(=O)c1cc(F)cc2[nH]c(N3CCN(c4cnc(C(=O)N5CCOCC5)cn4)CC3)nc12` [Compound (30), 6-fluoro-2-(4-(5-(morpholin-4-acyl)pyrazin-2-yl)piperazin-1-yl)-1H-benzimidazole-4-carboxamide] are 78% and 92%.
For `CNC(=O)c1cnc(N2CCN(c3nc4c(C(N)=O)cc(F)cc4[nH]3)CC2)nc1` [Compound (22), 6-fluoro-2-(4-(5-methylcarbamoylpyrimidin-2-yl)piperazin-1-yl)-1H-benzimidazole-4-carboxamide], the inhibition at 0.03 µM came to 71% and the inhibition at 0.1 µM amounted to 93%.
The corresponding values for `CCNc1cnc(N2CCN(c3nc4c(C(N)=O)cccc4[nH]3)CC2)nc1` [Compound (3), 2-(4-(5-ethylaminopyrimidin-2-yl)piperazin-1-yl)-1H-benzimidazole-4-carboxamide] are 6% and 13%.
As to `NC(=O)c1cccc2[nH]c(N3CCN(c4nccc(C(F)(F)F)n4)CC3)nc12` [Compound (9), 2-(4-(4-trifluoromethylpyrimidin-2-yl)piperazin-1-yl)-1H-benzimidazole-4-carboxamide], the inhibition at 0.03 µM worked out at 16% and the inhibition at 0.1 µM came to 31%.
As to `NC(=O)c1cc(F)cc2[nH]c(N3CCN(c4ccc(C(F)(F)F)nc4)CC3)nc12` [Compound (32), 6-fluoro-2-(4-(6-trifluoromethylpyridine-3-yl)piperazin-1-yl)-1H-benzimidazole-4-carboxamide], the inhibition at 0.03 µM turned out to be 66% and the inhibition at 0.1 µM came to 84%.
In the case of `NC(=O)c1cc(F)cc2[nH]c(N3CCN(c4ccc(C(F)(F)F)nn4)CC3)nc12` [Compound (31), 6-fluoro-2-(4-(6-trifluoromethylpyridazin-3-yl)piperazin-1-yl)-1H-benzimidazole-4-carboxamide], the inhibition at 0.03 µM was determined as 80% and the inhibition at 0.1 µM is 95%.
The corresponding values for `NC(=O)c1cccc2[nH]c(N3CCN(c4ccnc(C(F)(F)F)c4)CC3)nc12` [Compound (13), 2-(4-(2-trifluoromethylpyridin-4-yl)piperazin-1-yl)-1H-benzimidazole-4-carboxamide] are 43% and 69%.
In the case of `CC(=O)Nc1cnc(N2CCN(c3nc4c(C(N)=O)cccc4[nH]3)CC2)nc1` [Compound (4), 2-(4-(5-acetamidopyrimidin-2-yl)piperazin-1-yl)-1H-benzimidazole-4-carboxamide], the inhibition at 0.03 µM was determined as 27% and the inhibition at 0.1 µM was found to be 53%.
Regarding `N#Cc1ncc(N2CCN(c3nc4c(C(N)=O)cc(F)cc4[nH]3)CC2)cn1` [Compound (38), 2-(4-(2-cyanopyrimidin-5-yl)piperazin-1-yl)-6-fluoro-1H-benzimidazole-4-carboxamide], the inhibition at 0.03 µM worked out at 84% and the inhibition at 0.1 µM was determined as 95%.
Regarding `N#Cc1cnc(N2CCN(c3nc4c(C(N)=O)cc(F)cc4[nH]3)CC2)cn1` [Compound (37), 2-(4-(5-cyanopyrazin-2-yl)piperazin-1-yl)-6-fluoro-1H-benzimidazole-4-carboxamide], the inhibition at 0.03 µM was 87% and the inhibition at 0.1 µM was 98%.
Consider `NC(=O)c1cc(F)cc2[nH]c(N3CCN(c4ccncn4)CC3)nc12` [Compound (16), 6-fluoro-2-(4-(pyrimidin-4-yl)piperazin-1-yl)-1H-benzimidazole-4-carboxamide], for which the inhibition at 0.03 µM came to 78% and the inhibition at 0.1 µM came to 91%.
